Article PMC11928584, “H105A peptide eye drops promote photoreceptor survival in murine and human models of retinal degeneration” (Communications Medicine, 2025)
Where “and” joins values, the source holds several entries; their conditions need not be identical. Equal entries are not always repeated. Where a SMILES comes first, the peptide text is derived from it.

Assays:
[1] = Fluorescence distribution of labeled peptides in retinal cross-sections; type: in vivo, C57BL/6J mice; settings: Alexa Fluor 488-labeled peptide, eye drops, retinal cross-sections 1 h post-administration
Excerpt: Fig. 1 Penetration and bioavailability of PEDF Peptides 17-mer, H105A, and R99A Delivered via Eye Drops in Mouse Retinas. a Peptide mapping and sequence. Tertiary structure of human PEDF highlighting the small peptide region with neurotrophic activity (17-mer) in blue (top). Primary structure of human PEDF showing the location of the 17-mer region (middle). Sequences of the 17-mer peptide and its variants, H105A and R99A (bottom). b In vivo detection of peptides. Fundus micrographs showing fluorescence from Alexa Fluor 488-labeled 17-mer, H105A, and R99A peptides in the eyes of C57BL/6J mice at P21 days after eye drop administration of 5 µl of peptide at 1 mg/ml (left). Fundus images were taken at 1, 3-, 6-, 24-, and 48 h post-administration. Quantification of fluorescence intensity over time post-administration (right). […] The amount of peptide was quantified from the fluorescence in retinal extracts using standard curves (Supplementary Fig. 1a). Each data point represents the amount of each peptide per eye with three eyes (n = 3) per time point. d Retinal cross-sections showing fluorescence distribution in the photoreceptor layer 1 h after applying eye drops as in Panel B. Representative images for labeled 17-mer, H105A, and R99A peptides are shown, with magnified areas of 17-mer and H105A indicated by dotted rectangles. […]

[2] = tested on: human iPSC-derived retinal organoids exposed to CSE; assay: TUNEL staining of retinal organoid sections; type: cell-based; settings: Figure 8f, individual values, n=5
Description: Human iPSCs were differentiated into retinal organoids (ROs) following the protocol by Zhong et al.[41]. Briefly, on Day 0, hiPSC colonies were dissociated with dispase and grown in a suspension to form embryoid bodies, and slowly transitioned to neural induction media (DMEM/F12 (1:1), 1% N2 supplement (Invitrogen), 1 x minimum essential media-nonessential amino acids (NEAAs), 2 µg/ml heparin (Sigma)). On Day 7, EBs were seeded on Matrigel coated plates and maintained in neural induction media. On Day 16, the media was switched to the retinal differentiation medium (DMEM/F12 (3:1), 2% B27 (without vitamin A, Invitrogen), 1x NEAA and 1% antibiotic–antimycotic (Gibco)). Retinal domains were identified and lifted manually with tungsten needles between Day 21 and Day 26 under a phase contrast microscope. On day 30, the culture medium was transitioned to DMEM/F12 (3:1) with 2% B27, 1x NEAA, 1% antibiotic–antimycotic, 10% fetal bovine serum (FBS; Gibco), […] Taurine (Sigma), and 2 mM GlutaMAX (Invitrogen). Additionally, 1 µM retinoic acid supplement was introduced daily starting from day 63. On day 91, the medium was modified to DMEM/F12 (1:1) supplemented with 1% N2, 1 x NEAAs, 1% antibiotic–antimycotic, 10% FBS, […] Taurine and 2 mM GlutaMAX, and the concentration of retinoic acid supplementation was reduced to 0.5 µM for the remainder of the culture period. The use of hiPSCs in this study conforms to the University of Colorado Institutional Biosafety Committee standards. […]
D180 ROs were treated with each of the 5 experimental conditions, as described above (n = 5 for each condition), washed with PBS three times, and fixed with 4% paraformaldehyde for 10 min at room temperature. […] Fluorescence images were acquired with a Nikon C2 Confocal Microscope A1 (Minato City, Tokyo, Japan) and stitched together using Nikon Elements Software. Images were analysed with Fiji. The relative area of positive immunostaining was calculated as a percentage of total retinal area. […]

SMILES | distribution of labeled peptide in photoreceptor layer [1] | Relative TUNEL(+) area ([2]; CSE + peptide 1nM) | Relative TUNEL(+) area ([2]; CSE + peptide 20nM)
CC[C@H](C)[C@H](NC(=O)[C@H](CC(C)C)NC(=O)[C@H](CC(=O)O)NC(=O)[C@H](Cc1ccc(O)cc1)NC(=O)[C@H](Cc1ccc(O)cc1)NC(=O)[C@H](CC(C)C)NC(=O)[C@H](C)NC(=O)[C@H](CCCNC(=N)N)NC(=O)[C@H](Cc1c[nH]cn1)NC(=O)[C@@H](NC(=O)[C@@H](NC(=O)[C@H](CO)NC(=O)[C@H](CCC(=O)O)NC(=O)[C@@H](NC(=O)[C@H](CCCNC(=N)N)NC(=O)[C@@H](N)CCC(N)=O)[C@@H](C)O)[C@@H](C)CC)[C@@H](C)CC)C(=O)N[C@@H](CO)C(=O)O [17-mer] (H-QRTESIIHRALYYDLIS-OH) | decorated the OS in a punctuated fashion |  | 
CC[C@H](C)[C@H](NC(=O)[C@H](CC(C)C)NC(=O)[C@H](CC(=O)O)NC(=O)[C@H](Cc1ccc(O)cc1)NC(=O)[C@H](Cc1ccc(O)cc1)NC(=O)[C@H](CC(C)C)NC(=O)[C@H](C)NC(=O)[C@H](CCCNC(=N)N)NC(=O)[C@H](C)NC(=O)[C@@H](NC(=O)[C@@H](NC(=O)[C@H](CO)NC(=O)[C@H](CCC(=O)O)NC(=O)[C@@H](NC(=O)[C@H](CCCNC(=N)N)NC(=O)[C@@H](N)CCC(N)=O)[C@@H](C)O)[C@@H](C)CC)[C@@H](C)CC)C(=O)N[C@@H](CO)C(=O)O [H150A] (H-QRTESIIARALYYDLIS-OH) |  | 2.16 and 2.78 and 3.68 and 2.70 and 2.54 | 1.75 and 2.66 and 2.53 and 2.94 and 1.87
